In PMC5345022 (Scientific Reports, 2017):
Entries after “also recorded” stand apart in the source; their conditions may differ.

Assays:
[1] = molecular target: T1, human dopamine D2L receptor (Homo sapiens, UniProt P14416); experiment: biochemical
Protocol: (§2) Receptor binding studies were carried out as described previously[43][44].
(§3) The resulting competition curves of the receptor binding experiments were analysed by nonlinear regression using the algorithms in PRISM 6.0 (GraphPad Software, San Diego, CA). […] IC50 values were transformed to Ki values according to the equation of Cheng and Prusoff[48].

[2] = molecular target: T1, human dopamine D2L receptor; experiment: Radioligand binding assay with [3H]spiperone, membranes of CHO cells stably expressing the receptor; settings: for binding affinity (in words): D2R radioligand binding
Protocol: as §2, §3

[3] = molecular target: T2, dopamine receptor subtype D2S (Homo sapiens, UniProt P14416); experiment: cAMP inhibition assay: inhibition of forskolin-stimulated cAMP accumulation (CAMYEL BRET sensor); type: cell-based; design: expressed in transfected cells; host or cells: HEK293T cells, transient co-transfection with the CAMYEL sensor; settings: for Inhibition of forskolin-stimulated cAMP accumulation Emax (%) / Emax: maximum effect relative to the effect of quinpirole
Protocol: HEK293T cells were transiently co-transfected with pcDNA3L-His-CAMYEL[45] (purchased from ATCC, Manassas, VA via LGC Standards, Wesel, Germany) and D2s receptor, respectively, and the assay was performed according to literature. Twenty-four hours after transfection cells were split into white half-area 96-well plates at 2 × 10^5 cells/well and grown overnight in a phenol-red free medium supplemented with serum (Invitrogen, Darmstadt, Germany). On the day of measurement, the medium was removed and replaced by phosphate buffered saline (PBS). The cells were serum-starved for 1 h before treatment. The assay was started by adding 10 μL of coelenterazine-h (Promega, Mannheim, Germany) to each well to yield a final concentration of 5 μM. After 5 min of incubation, test compounds were added in PBS containing forskolin at a final concentration of 10 μM. After an incubation time of 15 min, BRET measurement was performed with a CLARIOstar plate reader (BMG LabTech, Ortenberg, Germany). […] Curves were normalised to basal BRET ratio obtained from dPBS (0%) and the maximum effect of the reference ligand quinpirole (100%).
Data from cAMP measurements were analysed by normalising the BRET ratios with 0% for the unstimulated receptor and 100% for the full effect of the reference ligand quinpirole. Dose-response curves were calculated by nonlinear regression using the algorithms of PRISM 6.0.
(§1) From each curve, a set of mean values was derived and pooled to result in an average curve showing the EC50 and Emax value, respectively.

[4] = molecular target: T2, dopamine receptor subtype D2S; experiment: β-Arrestin-2 recruitment assay (PathHunter), agonist and antagonist mode; type: cell-based; design: expressed in transfected cells; settings: for Emax: D2S-mediated recruitment of β-arrestin-2, PathHunter assay, relative to the maximum effect of quinpirole; for β-arrestin recruitment (in words): agonist mode
Protocol: The measurement of β-arrestin-2 recruitment stimulated by D2R activation was performed using the PathHunter® assay purchased from DiscoveRx (Birmingham, U.K.) according to the manufacturer’s protocol as described previously.
The amount of recruitment of β-arrestin was derived from the agonist-induced increase of chemiluminescence, which was expressed in counts per second (cps). Dose-response curves were normalised to basal cps stimulated by buffer (=0%) and the effect of the maximum effect of the reference compound quinpirole (=100%).
as §1

T2 sequence (P14416 1-414 isoform P14416-2): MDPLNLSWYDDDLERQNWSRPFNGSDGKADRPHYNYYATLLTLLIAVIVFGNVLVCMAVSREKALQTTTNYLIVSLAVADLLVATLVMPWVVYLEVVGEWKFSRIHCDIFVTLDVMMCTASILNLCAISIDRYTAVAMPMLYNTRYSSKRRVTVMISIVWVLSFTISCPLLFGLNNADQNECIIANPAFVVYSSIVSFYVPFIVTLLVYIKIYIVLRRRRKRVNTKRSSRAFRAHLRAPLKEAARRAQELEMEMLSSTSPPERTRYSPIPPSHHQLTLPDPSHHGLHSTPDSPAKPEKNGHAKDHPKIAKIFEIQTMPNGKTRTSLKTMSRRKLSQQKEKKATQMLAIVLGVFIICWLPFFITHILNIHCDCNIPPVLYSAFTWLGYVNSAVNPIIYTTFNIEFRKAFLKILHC
T1 sequence (P14416 whole entry): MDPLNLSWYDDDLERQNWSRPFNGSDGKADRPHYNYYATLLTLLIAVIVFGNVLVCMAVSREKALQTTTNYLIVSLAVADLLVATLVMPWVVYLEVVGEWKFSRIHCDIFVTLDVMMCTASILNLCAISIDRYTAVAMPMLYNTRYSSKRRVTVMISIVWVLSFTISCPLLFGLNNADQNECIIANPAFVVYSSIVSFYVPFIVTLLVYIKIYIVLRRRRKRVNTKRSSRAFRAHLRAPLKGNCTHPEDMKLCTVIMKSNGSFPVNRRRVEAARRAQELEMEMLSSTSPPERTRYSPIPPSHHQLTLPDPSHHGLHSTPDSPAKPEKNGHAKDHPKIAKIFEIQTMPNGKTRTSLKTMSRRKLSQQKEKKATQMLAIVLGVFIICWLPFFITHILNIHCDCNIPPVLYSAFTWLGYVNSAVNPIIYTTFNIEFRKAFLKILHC

For `O=C(O)c1cn(-c2ccc(F)cc2)c2cc(N3CCNCC3)c(F)cc2c1=O` [Sarafloxacin, reference compound], the Ki [1] was over 100 µM.
Work on `COc1cc(C(=O)OCCCCNC(=N)N)cc(OC)c1O` [Leonurine] yielded a Ki [1] of over 100 µM.
`CC(Cc1ccc(C(C)(C)C)cc1)CN1C[C@@H](C)O[C@@H](C)C1` (stereo partly shown) [Fenpropimorph] gave a Ki [2] of over 100 µM.
Work on `C=CC(C)(C)[C@@]12C[C@H]3C(=O)N/C(=C/c4c[nH]cn4)C(=O)N3[C@@H]1Nc1ccccc12` [Roquefortine C] yielded a Ki [1] of over 100 µM.
For `COC(=O)C1=CO[C@@H](C)[C@H]2CN3CCc4c([nH]c5ccccc45)[C@@H]3C[C@H]12` [Ajmalicine], the Ki [1] was over 100 µM.
For `CC(=O)OC1C(C)CN(C)C2Cc3c[nH]c4cccc(c34)C12` (stereo not shown) [Fumigaclavine A], the Ki [2] was 1.1 µM, the “Ki value relative to the endogenous ligand dopamine” value ([2]; D2L radioligand binding) was “seven times higher” and the EC50 [3] was 0.25 µM. The “agonist activity in the cAMP accumulation assay / Gi/o activation (in words)” value ([3]; D2S expressed in HEK cells) was “weak partial agonists”, the “agonist activity in the cAMP accumulation assay / Gi/o activation (in words)” value ([3]; D2S expressed in HEK cells, listed as fumigaclavine A) was “partial agonism in Gi/o activation” and the Emax [4] was under 7%. For the same compound, the “β-arrestin recruitment (in words)” value [4] was “did not show β-arrestin recruitment”.
Work on `CC[C@H]1CN2CCc3cc(OC)c(OC)cc3[C@@H]2C[C@@H]1C[C@H]1NCCc2cc(OC)c(OC)cc21` [Emetine, reference compound] yielded a Ki [2] of 37 µM.
`O=C(CC1NCCCC1O)Cn1cnc2cc(Br)c(Cl)cc2c1=O` (stereo not shown) [Halofuginone, reference compound] gave a Ki [2] of over 50 µM.
`Oc1cc(O)c2cc(O)c(-c3cc(O)c(O)c(O)c3)[o+]c2c1` [Delphinidin] gave a Ki [1] of 26 µM and an Emax [4] of under 7%.
For `COc1ccc2c(c1OC)CN1CCc3cc4c(cc3C1=C2)OCO4` [Dihydroberberine], the Ki [1] was 75 µM.
With `N[C@@H](CCCCn1c(C=O)ccc1CO)C(=O)O` [Pyrraline] the Ki [1] was over 100 µM.
`CC1NCCc2cc(O)c(O)cc21` (stereo not shown) [Salsolinol] was tested, and the “agonist activity in the cAMP accumulation assay / Gi/o activation (in words)” value ([3]; D2S expressed in HEK cells) was “weak partial agonists; also recorded: partial agonism in Gi/o activation”, the “Inhibition of forskolin-stimulated cAMP accumulation Emax (%)” value ([3]; D2S expressed in HEK cells) was 21% and the “Inhibition of forskolin-stimulated cAMP accumulation Emax (%)” value ([3]; D2S expressed in HEK cells, listed as salsolinol) was “below 50%”. For the same compound, the Emax [4] was under 7% and the “β-arrestin recruitment (in words)” value [4] was “did not show β-arrestin recruitment”.
For `CC(C)(C)NCC(O)c1cc(Cl)c(N)c(Cl)c1` (stereo not shown) [Clenbuterol, reference compound], the Ki [2] was 50 µM.
For `N=C(N/N=C/c1ccc(Cl)cc1)N/N=C/c1ccc(Cl)cc1` [Robenidine, reference compound], the “binding affinity (in words)” value [2] was “low micromolar range”, the Ki [1] was 5.4 µM and the “agonist activity in the cAMP accumulation assay / Gi/o activation (in words)” value ([3]; D2S expressed in HEK cells) was “could not observe any activation; also recorded: did not show any activation”. The Emax ([3]; HEK293, D2S expressed in HEK cells, read-out: Inhibition of forskolin-stimulated cAMP accumulation Emax (%)) was under 5%, the Emax [4] was under 7% and the “β-arrestin recruitment (in words)” value [4] was “could not observe any activation; also recorded: did not show any activation”.
Work on `O=C(CCc1ccc(O)c(O)c1)NCCCNCCCCNCCCNC(=O)CCc1ccc(O)c(O)c1` [Kukoamine A] yielded a Ki [1] of over 100 µM.
For `CN(C)CCc1ccc(O)cc1` [Hordenine], the Ki [2] was 13 µM, the “binding affinity (in words)” value [2] was “low micromolar range” and the EC50 [3] was 3.7 µM. The “agonist activity in the cAMP accumulation assay / Gi/o activation (in words)” value ([3]; D2S expressed in HEK cells) was “shows agonist properties; also recorded: almost full D2R-agonist in Gi/o activation”, the Emax ([3]; HEK293, read-out: Inhibition of forskolin-stimulated cAMP accumulation Emax (%), D2S expressed in HEK cells) was 76% and the Emax [4] was under 7%. For the same compound, the “β-arrestin recruitment (in words)” value [4] was “did not show significant β-arrestin recruitment; also recorded: no β-arrestin-2 recruitment was determined” and the “antagonism of quinpirole-stimulated β-arrestin-2 recruitment (in words)” value ([4]; antagonist mode: 30 min pre-incubation, then 300 nM quinpirole) was “antagonised D2-mediated β-arrestin recruitment; also recorded: antagonistic activity; also recorded: completely antagonised quinpirole-stimulated recruitment; also recorded: antagonism in β-arrestin recruitment”.
Compound `NCc1cc(=O)[nH]o1` [Muscimol] has a Ki [2] of over 100 µM.
